{"source": "ChEMBL document CHEMBL1127970", "about": "“Dual metalloprotease inhibitors. IV. Utilization of thiazepines and thiazines as constrained peptidomimetic surrogates in mercaptoacyl dipeptides” (Bioorg Med Chem Lett, 1994)", "key": {"[1]": {"target": "T1, Angiotensin-converting enzyme (Rattus norvegicus, UniProt P47820)", "T1 sequence (P47820 whole entry)": "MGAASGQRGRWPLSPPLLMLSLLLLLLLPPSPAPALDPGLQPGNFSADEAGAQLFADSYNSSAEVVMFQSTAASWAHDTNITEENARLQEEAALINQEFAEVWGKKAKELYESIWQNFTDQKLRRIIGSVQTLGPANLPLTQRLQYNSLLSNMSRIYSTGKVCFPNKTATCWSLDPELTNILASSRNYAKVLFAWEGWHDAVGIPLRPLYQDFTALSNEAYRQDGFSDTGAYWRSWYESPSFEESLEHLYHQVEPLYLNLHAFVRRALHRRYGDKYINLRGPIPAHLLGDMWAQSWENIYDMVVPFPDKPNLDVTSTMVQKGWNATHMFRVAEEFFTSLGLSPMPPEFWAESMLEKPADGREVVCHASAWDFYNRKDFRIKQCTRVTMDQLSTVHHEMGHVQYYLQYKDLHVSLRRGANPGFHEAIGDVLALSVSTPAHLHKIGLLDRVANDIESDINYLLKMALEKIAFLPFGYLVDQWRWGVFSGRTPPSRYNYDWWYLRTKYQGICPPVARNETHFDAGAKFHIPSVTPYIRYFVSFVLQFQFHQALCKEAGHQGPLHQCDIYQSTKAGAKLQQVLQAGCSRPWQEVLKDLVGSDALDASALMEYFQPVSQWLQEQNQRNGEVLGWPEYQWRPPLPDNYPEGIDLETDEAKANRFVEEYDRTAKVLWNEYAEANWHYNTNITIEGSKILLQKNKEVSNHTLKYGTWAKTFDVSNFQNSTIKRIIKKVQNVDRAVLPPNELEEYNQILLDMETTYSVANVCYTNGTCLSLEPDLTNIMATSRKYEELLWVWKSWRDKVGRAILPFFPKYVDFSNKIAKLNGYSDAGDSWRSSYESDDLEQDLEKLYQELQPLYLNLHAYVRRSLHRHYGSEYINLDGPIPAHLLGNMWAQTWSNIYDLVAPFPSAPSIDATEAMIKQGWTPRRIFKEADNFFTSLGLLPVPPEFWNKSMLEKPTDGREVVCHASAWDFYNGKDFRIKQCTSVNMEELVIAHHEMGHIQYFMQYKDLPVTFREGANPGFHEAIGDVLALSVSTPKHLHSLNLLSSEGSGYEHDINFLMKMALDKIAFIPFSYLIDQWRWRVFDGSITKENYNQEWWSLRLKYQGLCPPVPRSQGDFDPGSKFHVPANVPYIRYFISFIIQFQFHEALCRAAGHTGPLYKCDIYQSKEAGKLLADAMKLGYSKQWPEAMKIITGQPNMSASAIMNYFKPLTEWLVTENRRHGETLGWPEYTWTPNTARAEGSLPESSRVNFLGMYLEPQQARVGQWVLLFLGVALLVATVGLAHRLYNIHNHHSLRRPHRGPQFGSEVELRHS", "assay": "In vitro inhibition of angiotensin converting enzyme isolated from rat lung.", "settings": "read-out: I50"}, "[2]": {"test_system": "Rattus norvegicus", "assay": "Effective dose required to inhibit angiotensin 1(AI) induced pressor response in normotensive rats when administered intravenously", "type": "functional", "settings": "iv"}, "[3]": {"target": "T2, Neprilysin (Rattus norvegicus, UniProt P07861)", "T2 sequence (P07861 whole entry)": "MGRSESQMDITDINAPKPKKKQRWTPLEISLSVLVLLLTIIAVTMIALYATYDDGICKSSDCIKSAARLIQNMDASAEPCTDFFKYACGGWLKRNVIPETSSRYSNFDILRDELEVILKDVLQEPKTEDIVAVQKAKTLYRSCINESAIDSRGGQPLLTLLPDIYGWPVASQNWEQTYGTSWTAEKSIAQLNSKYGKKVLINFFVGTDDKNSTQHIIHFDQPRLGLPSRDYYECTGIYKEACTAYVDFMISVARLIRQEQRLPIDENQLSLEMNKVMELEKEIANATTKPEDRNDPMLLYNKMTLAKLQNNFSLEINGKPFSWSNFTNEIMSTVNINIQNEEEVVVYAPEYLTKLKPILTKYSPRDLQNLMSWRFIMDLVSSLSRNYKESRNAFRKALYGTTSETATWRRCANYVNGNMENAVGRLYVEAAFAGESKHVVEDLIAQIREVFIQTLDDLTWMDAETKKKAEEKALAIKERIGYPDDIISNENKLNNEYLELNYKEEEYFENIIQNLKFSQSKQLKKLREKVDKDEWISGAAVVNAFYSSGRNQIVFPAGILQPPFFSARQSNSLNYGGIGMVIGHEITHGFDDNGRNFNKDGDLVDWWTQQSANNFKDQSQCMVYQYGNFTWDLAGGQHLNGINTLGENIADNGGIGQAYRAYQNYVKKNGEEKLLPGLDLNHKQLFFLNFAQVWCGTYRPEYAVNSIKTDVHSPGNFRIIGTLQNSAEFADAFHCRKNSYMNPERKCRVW", "assay": "In vitro inhibition of Neutral Endopeptidase isolated from rat kidney.", "settings": "read-out: I50"}}}
{"smiles": "O=C(O)CN1C(=O)[C@H](NC(=O)[C@@H](S)Cc2ccccc2)CS[C@@H]1c1ccccc1", "values": [{"measurement": "IC50", "setting": "[1]", "value": 20, "unit": "nM"}, {"measurement": "ED50", "setting": "[2]", "value": 0.21, "unit": "µmol/kg"}]}
{"smiles": "O=C(O)CN1CCSC[C@H](NC(=O)[C@@H](S)Cc2ccccc2)C1=O", "values": [{"measurement": "IC50", "setting": "[1]", "value": 67, "unit": "nM"}, {"measurement": "IC50", "setting": "[3]", "value": 244, "unit": "nM"}, {"measurement": "ED50", "setting": "[2]", "value": 4.4, "unit": "µmol/kg"}]}
{"smiles": "O=C(O)CN1C[C@@H](c2ccccc2)SC[C@H](NC(=O)[C@@H](CS)Cc2ccccc2)C1=O", "values": [{"measurement": "IC50", "setting": "[1]", "value": 33, "unit": "nM"}, {"measurement": "ED50", "setting": "[2]", "value": "> 1.5", "unit": "µmol/kg"}]}
{"smiles": "O=C(O)CN1C(=O)[C@@H](NC(=O)[C@@H](S)Cc2ccccc2)CSc2ccccc21", "values": [{"measurement": "IC50", "setting": "[1]", "value": 13, "unit": "nM"}, {"measurement": "ED50", "setting": "[2]", "value": 0.14, "unit": "µmol/kg"}]}
{"smiles": "CC1(C)CSC[C@H](NC(=O)[C@@H](S)Cc2ccccc2)C(=O)N1CC(=O)O", "values": [{"measurement": "IC50", "setting": "[1]", "value": 13.8, "unit": "nM"}]}
{"smiles": "C[C@@H]1SCC[C@H](NC(=O)[C@@H](S)Cc2ccccc2)C(=O)N1CC(=O)O", "values": [{"measurement": "IC50", "setting": "[1]", "value": 11.7, "unit": "nM"}]}
{"smiles": "O=C(O)CN1C(=O)[C@@H](NC(=O)[C@@H](CS)Cc2ccccc2)CS[C@@H]1c1ccccc1", "values": [{"measurement": "IC50", "setting": "[1]", "value": 167, "unit": "nM"}, {"measurement": "IC50", "setting": "[3]", "value": 2.5, "unit": "nM"}]}
{"smiles": "O=C(O)CN1CCSC[C@H](NC(=O)[C@@H](CS)Cc2ccccc2)C1=O", "values": [{"measurement": "IC50", "setting": "[1]", "value": 100, "unit": "nM"}]}
{"smiles": "O=C(O)CN1C(=O)[C@@H](NC(=O)[C@@H](CS)Cc2ccccc2)CSc2ccccc21", "values": [{"measurement": "IC50", "setting": "[1]", "value": 17, "unit": "nM"}, {"measurement": "IC50", "setting": "[3]", "value": 1, "unit": "nM"}, {"measurement": "ED50", "setting": "[2]", "value": 3.96, "unit": "µmol/kg"}]}
{"smiles": "O=C(O)CN1C(=O)[C@H](NC(=O)[C@@H](CS)Cc2ccccc2)CS[C@@H]1c1ccccc1", "values": [{"measurement": "IC50", "setting": "[1]", "value": 123, "unit": "nM"}, {"measurement": "IC50", "setting": "[3]", "value": 126, "unit": "nM"}]}
{"smiles": "O=C(O)CN1C[C@H](c2ccccc2)SC[C@H](NC(=O)[C@@H](S)Cc2ccccc2)C1=O", "values": [{"measurement": "IC50", "setting": "[1]", "value": 290, "unit": "nM"}, {"measurement": "IC50", "setting": "[3]", "value": 2040, "unit": "nM"}]}
{"smiles": "O=C(O)CN1C(=O)[C@@H](NC(=O)[C@@H](CS)Cc2ccccc2)CS[C@H]1c1ccccc1", "values": [{"measurement": "IC50", "setting": "[1]", "value": 115, "unit": "nM"}, {"measurement": "IC50", "setting": "[3]", "value": 2.7, "unit": "nM"}]}
{"smiles": "O=C(O)CN1C[C@@H](c2ccccc2)SC[C@H](NC(=O)[C@@H](S)Cc2ccccc2)C1=O", "values": [{"measurement": "IC50", "setting": "[1]", "value": 40, "unit": "nM"}, {"measurement": "IC50", "setting": "[3]", "value": 99, "unit": "nM"}, {"measurement": "ED50", "setting": "[2]", "value": "< 0.15", "unit": "µmol/kg"}]}
{"smiles": "O=C(O)CN1CSCC[C@H](NC(=O)[C@@H](S)Cc2ccccc2)C1=O", "values": [{"measurement": "IC50", "setting": "[1]", "value": 61, "unit": "nM"}, {"measurement": "IC50", "setting": "[3]", "value": 535, "unit": "nM"}]}
{"smiles": "O=C(O)CN1C(=O)[C@@H](NC(=O)[C@@H](S)Cc2ccccc2)CSC[C@H]1c1ccccc1", "values": [{"measurement": "IC50", "setting": "[1]", "value": 29, "unit": "nM"}, {"measurement": "ED50", "setting": "[2]", "value": 0.49, "unit": "µmol/kg"}]}
{"smiles": "O=C(O)CN1C(=O)[C@@H](NC(=O)[C@@H](S)Cc2ccccc2)CS[C@@H]1c1ccccc1", "values": [{"measurement": "IC50", "setting": "[1]", "value": 25, "unit": "nM"}, {"measurement": "ED50", "setting": "[2]", "value": 2.75, "unit": "µmol/kg"}]}
{"smiles": "O=C(O)CN1C(=O)[C@@H](NC(=O)[C@@H](S)Cc2ccccc2)CS[C@H]1c1ccccc1", "values": [{"measurement": "IC50", "setting": "[1]", "value": 73, "unit": "nM"}]}
{"smiles": "O=C(O)CN1C(=O)[C@@H](NC(=O)[C@@H](CS)Cc2ccccc2)CSC[C@H]1c1ccccc1", "values": [{"measurement": "IC50", "setting": "[1]", "value": 22, "unit": "nM"}]}
